Reference: patent US12692253B2, “Antimicrobial compounds and methods” (Curza Global, LLC, priority 2019, dated 2026)

Assays:
[1] = tested on: E. coli S30 extract (bacterial protein synthesis); test: E. coli S30 extract coupled transcription-translation luciferase assay (inhibition of bacterial protein synthesis); assay type: biochemical; conditions: % inhibition @ 1 μM, read-out: S30 IC50 (μM/% inhib.)
Procedure, shortened: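 Coupled transcription-translation in E. coli S30 circular-DNA extract expressing luciferase from pBESTluc, with 8-point 2-fold compound dilutions; 1 hour at 37 °C, stopped at 4 °C. Luminescence read; % inhibition versus no-inhibitor wells, no-DNA wells as background.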

[2] = tested on: A. baumannn (Ab); test: Broth microdilution minimum inhibitory concentration (MIC), CLSI; assay type: cell-based; conditions: A. baumannn; growth medium with sodium bicarbonate; read-out: Ab + bicarb MIC
Procedure, shortened: (§1)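 CLSI broth microdilution with modification: 8-point two-fold compound dilutions in CAMHB, CAMHB plus 6.25 or 25 mM sodium bicarbonate, or CAMHB plus 0–50% heat-inactivated human serum. Inoculum 5×10^4 CFU/well from log-phase cultures adjusted to 0.5 McFarland; triplicate wells.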

[3] = tested on: E. faecalis (Ef); test: as above; assay type: cell-based; conditions: growth medium with sodium bicarbonate; for MIC: Enterococcus faecalis, read-out: Ef + bicarb MIC
Procedure, shortened: as §1

[4] = tested on: P. aeruginosa (Pa); test: as above; assay type: cell-based; conditions: Pseudomonas aeruginosa, growth medium with sodium bicarbonate, read-out: Pa MIC + bicarb
Procedure, shortened: as §1

[5] = tested on: E. coli (Ec); test: as above; assay type: cell-based; conditions: Escherichia coli, growth medium with sodium bicarbonate, read-out: E. coli + bicarb MIC
Procedure, shortened: as §1

[6] = tested on: S. aureus (Sa); test: as above; assay type: cell-based; conditions: Staphylococcus aureus, growth medium with sodium bicarbonate, read-out: Sa + bicarb MIC
Procedure, shortened: as §1

[7] = target: Rabbit Reticulocyte Lysate (eukaryotic protein synthesis); test: Rabbit reticulocyte lysate luciferase assay (inhibition of eukaryotic protein synthesis); assay type: biochemical; conditions: % inhibition @ 1 μM, read-out: Rabbit reticulocyte IC50 (μM/% inhib.)
Procedure, shortened: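 In vitro translation of luciferase control RNA in nuclease-treated rabbit reticulocyte lysate with amino acid mixture, compounds in 2-fold serial dilution, 90 minutes at 30° C. Luminescence read after luciferase reagent; % inhibition relative to water no-inhibitor controls, with no-RNA background wells.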

Row | Structure (SMILES) | IC50 [1] [µM] | MIC [2] [µg/mL] | MIC [3] [µg/mL] | MIC [4] [µg/mL] | MIC [5] [µg/mL] | MIC [6] [µg/mL] | IC50 [7] [µM] | Ef + bicarb MIC [3]
1 | CC(Cc1ccc(-n2ccc(NC(=O)N3CCN(C(=O)C(C)(C)N)CC3)nc2=O)cc1C(F)(F)F)N1C[C@@H]2[C@@H](N)[C@@H]2C1 (stereo partly drawn) [Compound 209] | ≥ 1 | > 32 | > 32 | > 32 | > 32 | > 32 | ≥ 1 | –
2 | CC(C)(N)C(=O)N1CCN(C(=O)Nc2ccn(-c3ccc(CCN4C[C@@H]5[C@H](C4)[C@H]5C(N)CO)cc3)c(=O)n2)CC1 (stereo partly drawn) [Compound 210] | 0.5 to 1 | > 32 | 8 to 32 | > 32 | < 8 | < 8 | ≥ 1 | –
3 | CCC(Cc1ccc(-n2ccc(NC(=O)N3CCN(C(=O)C(C)(C)N)CC3)nc2=O)cc1C(F)(F)F)N1C[C@@H]2[C@@H](CN)[C@@H]2C1 (stereo partly drawn) [Compound 211] | 0.5 to 1 | 8 to 32 | < 8 | > 32 | < 8 | < 8 | ≥ 1 | –
4 | CC(=O)NC[C@@H]1[C@H]2CN(C(C)Cc3ccc(-n4ccc(NC(=O)N5CCN(C(=O)C(C)(C)N)CC5)nc4=O)cc3)C[C@@H]12 (stereo partly drawn) [Compound 212] | ≥ 1 | > 32 | > 32 | > 32 | > 32 | > 32 | ≥ 1 | –
5 | CC(C)(N)C(=O)N1CCN(C(=O)Nc2ccn(-c3ccc(CCN4C[C@@H]5[C@H](C4)[C@H]5C(N)CN)cc3)c(=O)n2)CC1 (stereo partly drawn) [Compound 213] | ≥ 1 | > 32 | > 32 | > 32 | < 8 | > 32 | ≥ 1 | –
6 | CC(Cc1ccc(-n2ccc(NC(=O)N3CCN(C(=O)C(C)(C)N)CC3)nc2=O)cc1)N1CC2CCC(N)C2C1 (stereo not drawn) [Compound 214] | < 0.5 | > 32 | < 8 | > 32 | < 8 | < 8 | ≥ 1 | –
7 | CC(Cc1ccc(-n2ccc(NC(=O)N3CCN(C(=O)C(C)(C)N)CC3)nc2=O)cc1)N1CC2CCC(N)CC2C1 (stereo not drawn) [Compound 215] | < 0.5 | > 32 | – | > 32 | < 8 | < 8 | ≥ 1 | ++ (An MIC value (μg/mL) that is 8 μg/mL or greater and less than 32 μg/mL)
8 | CC(Cc1ccc(-n2ccc(NC(=O)N3CCN(C(=O)C(C)(C)N)CC3)nc2=O)cc1)N1CC2CCCC(N)C2C1 (stereo not drawn) [Compound 216] | < 0.5 | > 32 | < 8 | > 32 | < 8 | < 8 | ≥ 1 | –
9 | CCC(Cc1ccc(-n2ccc(NC(=O)N3CCN(C(=O)C(C)(C)N)CC3)nc2=O)cc1)N1CC2CCC(N)C2C1 (stereo not drawn) [Compound 217] | < 0.5 | > 32 | < 8 | > 32 | < 8 | < 8 | ≥ 1 | –
10 | CCC(Cc1ccc(-n2ccc(NC(=O)N3CCN(C(=O)C(C)(C)N)CC3)nc2=O)cc1)N1CC2CCC(N)CC2C1 (stereo not drawn) [Compound 218] | < 0.5 | > 32 | – | > 32 | < 8 | < 8 | ≥ 1 | +++ (An MIC value (μg/mL) that is less than 8 μg/mL)
11 | CCC(Cc1ccc(-n2ccc(NC(=O)N3CCN(C(=O)C(C)(C)N)CC3)nc2=O)cc1)N1CC2CCCC(N)C2C1 (stereo not drawn) [Compound 219] | < 0.5 | > 32 | < 8 | > 32 | < 8 | < 8 | ≥ 1 | –
12 | CC(Cc1ccc(-n2ccc(NC(=O)N3CCN(C(=O)C(C)(C)N)CC3)nc2=O)cc1)[N+]1(C)C[C@@H]2[C@@H](CN)[C@@H]2C1 (stereo partly drawn) [Compound 220] | < 0.5 | > 32 | 8 to 32 | > 32 | < 8 | < 8 | ≥ 1 | –
13 | CCC(Cc1ccc(-n2ccc(NC(=O)N3CCN(C(=O)C(C)(C)N)CC3)nc2=O)cc1)N1C[C@@H]2[C@@H](CNC)[C@@H]2C1 (stereo partly drawn) [Compound 221] | ≥ 1 | < 8 | < 8 | > 32 | < 8 | < 8 | ≥ 1 | –
14 | CC(Cc1ccc(-n2ccc(NC(=O)N3CCN(C(=O)[C@H](C)N)CC3)nc2=O)cc1)N1C[C@@H]2[C@@H](CN)[C@@H]2C1 (stereo partly drawn) [Compound 222] | 0.5 to 1 | > 32 | 8 to 32 | > 32 | < 8 | < 8 | ≥ 1 | –
15 | CC(C)[C@H](N)C(=O)N1CCN(C(=O)Nc2ccn(-c3ccc(CC(C)N4C[C@@H]5[C@@H](CN)[C@@H]5C4)cc3)c(=O)n2)CC1 (stereo partly drawn) [Compound 223] | < 0.5 | > 32 | < 8 | > 32 | < 8 | < 8 | ≥ 1 | –
16 | CCC(N)(CC)C(=O)N1CCN(C(=O)Nc2ccn(-c3ccc(CN4C[C@@H]5[C@@H](N)[C@@H]5C4)cc3)c(=O)n2)CC1 [Compound 224] | < 0.5 | > 32 | < 8 | > 32 | < 8 | < 8 | ≥ 1 | –
17 | CC(Cc1ccc(-n2ccc(NC(=O)N3CCN(C(=O)C(C)(C)N)CC3)nc2=O)cc1)N1CCC2(CC(N)C2)C1 (stereo not drawn) [Compound 225] | 0.5 to 1 | > 32 | – | > 32 | < 8 | < 8 | ≥ 1 | +++ (An MIC value (μg/mL) that is less than 8 μg/mL)
18 | CC(Cc1ccc(-n2ccc(NC(=O)N3CCN(C(=O)C4(N)CC4)CC3)nc2=O)cc1)N1C[C@@H]2[C@@H](CN)[C@@H]2C1 (stereo partly drawn) [Compound 226] | ≥ 1 | > 32 | > 32 | > 32 | > 32 | > 32 | ≥ 1 | –
19 | CC(Cc1ccc(-n2ccc(NC(=O)N3CCN(C(=O)CN)CC3)nc2=O)cc1)N1C[C@@H]2[C@@H](CN)[C@@H]2C1 (stereo partly drawn) [Compound 227] | 0.5 to 1 | > 32 | < 8 | > 32 | < 8 | < 8 | ≥ 1 | –
20 | CC(Cc1ccc(-n2ccc(NC(=O)N3CCN(C(=O)[C@@H]4CCCN4)CC3)nc2=O)cc1)N1C[C@@H]2[C@@H](CN)[C@@H]2C1 (stereo partly drawn) [Compound 228] | ≥ 1 | > 32 | 8 to 32 | > 32 | < 8 | < 8 | ≥ 1 | –
21 | CC(Cc1ccc(-n2ccc(NC(=O)N3CCN(C(=O)C4(N)CCC4)CC3)nc2=O)cc1)N1C[C@@H]2[C@@H](CN)[C@@H]2C1 (stereo partly drawn) [Compound 229] | ≥ 1 | > 32 | > 32 | > 32 | 8 to 32 | > 32 | ≥ 1 | –
22 | CC(C)[C@@H](N)C(=O)N1CCN(C(=O)Nc2ccn(-c3ccc(CC(C)N4C[C@@H]5[C@@H](CN)[C@@H]5C4)cc3)c(=O)n2)CC1 (stereo partly drawn) [Compound 230] | ≥ 1 | > 32 | > 32 | > 32 | < 8 | 8 to 32 | ≥ 1 | –
23 | CC(Cc1ccc(-n2ccc(NC(=O)N3CCN(C(=O)C[C@H](C)N)CC3)nc2=O)cc1)N1C[C@@H]2[C@@H](CN)[C@@H]2C1 (stereo partly drawn) [Compound 231] | ≥ 1 | > 32 | > 32 | > 32 | < 8 | < 8 | ≥ 1 | –
24 | CC(Cc1ccc(-n2ccc(NC(=O)N3CCN(C(=O)[C@H]4C[C@@H](N)C4)CC3)nc2=O)cc1)N1C[C@@H]2[C@@H](CN)[C@@H]2C1 (stereo partly drawn) [Compound 232] | ≥ 1 | > 32 | > 32 | > 32 | < 8 | < 8 | ≥ 1 | –
25 | CC(Cc1ccc(-n2ccc(NC(=O)N3CCN(C(=O)C(C)(C)CN)CC3)nc2=O)cc1)N1C[C@@H]2[C@@H](CN)[C@@H]2C1 (stereo partly drawn) [Compound 233] | ≥ 1 | > 32 | 8 to 32 | > 32 | < 8 | < 8 | ≥ 1 | –
26 | CC(Cc1ccc(-n2ccc(NC(=O)N3CCN(C(=O)[C@H]4C[C@H](N)C4)CC3)nc2=O)cc1)N1C[C@@H]2[C@@H](CN)[C@@H]2C1 (stereo partly drawn) [Compound 234] | ≥ 1 | > 32 | > 32 | > 32 | < 8 | < 8 | ≥ 1 | –
27 | CC(C)[C@@H](N)CC(=O)N1CCN(C(=O)Nc2ccn(-c3ccc(CC(C)N4C[C@@H]5[C@@H](CN)[C@@H]5C4)cc3)c(=O)n2)CC1 (stereo partly drawn) [Compound 235] | ≥ 1 | > 32 | > 32 | > 32 | < 8 | < 8 | ≥ 1 | –
